The test system of one data set is wireworm. As to the kind of experiment: efficacy trial against endo-parasite wireworm. The class given is in vivo, cattle. The note with it: ~200 kg cow, slaughtered 3 weeks after treatment. As to the method: The purpose of the trial was to establish the efficacy of biologically active agent when administered by the system according to the present invention in treating cattle for the endo-parasite wireworm.
Two cattle of similar age and weight (˜200 kg) were infected with wireworm parasite to the level of 6000 to 8000 worm eggs per gram of faeces. One cow was treated with the biologically active agent in its ‘pour on’ form and the other cattle were treated with two dosage projectiles fired from a distance of approx 20 meters with a CO2 propelled launcher with an impact velocity of about 130 ft/sec.
Each projectile was spherical and made from soft gelatine compound with the shell being of about 2 mm thick. The size was sufficient to hold about 10 ml of the liquid biologically active agent comprising the following constituent:
10 mg of abamectin (at a dosage concentration of 1 mg per 10 kg of body mass)
5% solution of the solvent/transdermal carrier propylene glycol (the proprietary brand Icinol)
a standard turquoise, inert pharmaceutical colorant known as FC & D blue
The impact area of the ruptured projectiles was the hind quarter and lower neck/shoulder of the cattle.
The cattle were slaughtered 3 weeks after treatment and the stomach contents/linings examined under laboratory conditions.

A short description of data set [1]: drug trials: absorption of abamectin from projectile vs Pour On. Format: in vivo. The conditions noted are these: applied in a projectile at 5 g/l. An excerpt: The system has been adapted for use in Africa for treating antelope species. Each projectile was designed to treat a 100 kg animal.
The conditions of data set [2]: primate skin types in contact with pure ivermectin; cited from earlier work.

On to abamectin, for which the free of parasite result with wireworm ('pour on' form) was “approx 96%”. For the same substance, the “free of internal parasite infection” value with wireworm (two dosage projectiles) was 100%. In addition, the “absorption of the active compared with traditional Pour On application” value in data set [1] (antelope species) and in data set [1] (cattle) was “at least as good as” throughout.
As for ivermectin [pure ivermectin], the “active agent absorbed into the bloodstream” value in data set [2] was “less than 1%”.

The values above are taken from US8802135B2, “Delivery system for remote treatment of an animal” (SmartVet Pty Ltd., priority 2006, dated 2014).
